In patent publication US20240270744A1 (Hoffmann-La Roche Inc., priority 2021, published 2024):
pKi: −log10 of the molar value. Read-outs that look alike come from different tables or passages of the source.

How the values were obtained:
[1] = molecular target: human GABAA α1β3γ2 receptor (Homo sapiens (Human), UniProt P14867+P18507); experiment: Radioligand binding assay, competition for [3H]Flumazenil, γ2-containing GABAA subtypes; settings: read-out: Ki h-GABAA α1β3γ2
Description: The affinity of compounds at GABAA γ2 subunit-containing receptors was measured by competition for [^3H]Flumazenil (81.1 Ci/mmol; Roche) binding to HEK293F cells expressing human (transiently transfected) receptors of composition α1β3γ2.
Harvested pellets from HEK293F cells expressing the different GABAA γ2 receptor subtypes were resuspended in Mannitol Buffer pH 7.2-7.4 and processed as described above for the cells expressing the GABAA γ1 subunit-containing receptors.
Assays were incubated to equilibrium for 1 hour at 4° C. and harvested onto GF/C uni-filters (Packard) by filtration using a Packard harvester and washing with ice-cold wash buffer (50 mM Tris; pH 7.5). After anhydrousing, filter-retained radioactivity was detected by liquid scintillation counting. Ki values were calculated using Excel-Fit (Microsoft) and are the means of two determinations.

h-GABA-A α2β2γ1 = h-GABA-A α2β2γ1 (Homo sapiens (Human), UniProt P47869+Q8N1C3); experiment: Two-electrode voltage clamp electrophysiology in Xenopus oocytes expressing GABAA receptors; assay type: cell-based; settings: Table 2; for Efficacy (GABA) %: % modulation of GABA EC20 = 100*(Fold increase-1), compound at 30-fold Ki; for Fold increase h-GABA-A α2β2γ1 oocyte @ 30-fold Ki: GABA EC20, test compound at approx. 30-fold its Ki α2β2γ1, Xenopus oocytes, -80 mV
Description: Xenopus laevis oocytes at maturation stages V-VI were used for the expression of cloned mRNA encoding GABAA receptor subunits. Oocytes ready for RNA micro-injection were bought from Ecocyte, Castrop-Rauxel, Germany and stored in modified Barth's medium (composition in mM: NaCl 88, KCl 1, NaHCO3 2.4, HEPES 10, MgSO4 0.82, CaNO3 0.33, CaCl2 0.33, pH=7.5) at 20° C. until the experiment.
Oocytes were plated in 96-well plates for microinjection using the Roboinject automated instrument (MultiChannelSystems, Reutlingen, Germany). Approximately 50 nL of an aqueous solution containing the RNA transcripts for the subunits of the desired GABAA receptor subtype was injected into each oocyte. […] Oocytes were kept in modified Barth's medium (composition in mM: NaCl 88, KCl 1, NaHCO3 […], HEPES 10, MgSO4 0.82, CaNO3 0.33, CaCl2 0.33, pH=7.5) at 20° C. until the experiment.
Electrophysiological experiments were performed using the Roboocyte instrument (MultiChannelSystems, Reutlingen, Germany) on days 3 to 5 after the micro-injection of mRNA. During the experiment the oocytes were constantly superfused by a solution containing (in mM) NaCl 90, KCl 1, HEPES 5, MgCl2 1, CaCl2 1 (pH 7.4). Oocytes were impaled by two glass microelectrodes (resistance: […]) which were filled with a solution containing KCl 1M+K-acetate 1.5 M and voltage-clamped to −80 mV. The recordings were performed at room temperature using the Roboocyte two-electrode voltage clamp system (Multichannelsystem). After an initial equilibration period of 1.5 min GABA was added for 1.5 min at a concentration evoking approximately 20% of a maximal current response (EC20). After another rest interval of 2.5 min GABA was again added evoking a response of similar amplitude and shape. […] Current traces were recorded at a digitization rate of 10 Hz during and shortly before and after the GABA application.
Each compound and concentration was tested on at least 3 oocytes. Different oocytes were used for different compound concentrations.
For the analysis, the digitized current traces of the first and second GABA response were superimposed and, if necessary, rescaled to equal maximal amplitudes. The ratio between the two responses during the time interval of test compound application was calculated point by point. The extremum of the resulting “ratio trace” was taken as the efficacy (“Fold increase”) of the compound expressed as “% modulation of GABA EC20” (100*(Fold increase−1)).

[2] = Table 1, [3H]Flumazenil displacement, HEK293F cells, mean of two determinations

C[C@@H]1N=C(c2c(F)cccc2F)c2c(cnc(C(F)(F)F)c2Cl)-n2nc(C(=O)NCC3(O)CC3)nc21 [Example 22, (7S)-11-chloro-9-(2,6-difluorophenyl)-N-[(1-hydroxycyclopropyl)methyl]-7-methyl-12-(trifluoromethyl)-2,3,5,8,13-pentazatricyclo[8.4.0.02,6]tetradeca-1(10),3,5,8,11,13-hexaene-4-carboxamide]
pKi [1, 2]: 4.98 | Efficacy (GABA) % (h-GABA-A α2β2γ1): 172% | Fold increase h-GABA-A α2β2γ1 oocyte @ 30-fold Ki (h-GABA-A α2β2γ1): 2.72

Cc1ncc2c(c1Cl)C(c1c(F)cccc1F)=N[C@@H](C)c1nnc(C)n1-2 [Example 3, (7S)-11-chloro-9-(2,6-difluorophenyl)-3,7,12-trimethyl-2,4,5,8,13-pentazatricyclo[8.4.0.02,6]tetradeca-1(10),3,5,8,11,13-hexaene]
pKi [1, 2]: 5.75 | Efficacy (GABA) % (h-GABA-A α2β2γ1): 66% | Fold increase h-GABA-A α2β2γ1 oocyte @ 30-fold Ki (h-GABA-A α2β2γ1): 1.66

C[C@@H]1N=C(c2c(F)cccc2F)c2c(cnc(C(F)(F)F)c2Cl)-n2nc(C(=O)NC[C@@H](C)O)nc21 [Example 16, (7S)-11-chloro-9-(2,6-difluorophenyl)-N-[(2R)-2-hydroxypropyl]-7-methyl-12-(trifluoromethyl)-2,3,5,8,13-pentazatricyclo[8.4.0.02,6]tetradeca-1(10),3,5,8,11,13-hexaene-4-carboxamide]
pKi [1, 2]: 5.02 | Efficacy (GABA) % (h-GABA-A α2β2γ1): 166% | Fold increase h-GABA-A α2β2γ1 oocyte @ 30-fold Ki (h-GABA-A α2β2γ1): 2.66

C[C@@H]1N=C(c2c(F)cccc2F)c2c(cnc(C(F)(F)F)c2Cl)-n2nc(NC(=O)C3COC3)nc21 [Example 12, N-[(7S)-11-chloro-9-(2,6-difluorophenyl)-7-methyl-12-(trifluoromethyl)-2,3,5,8,13-pentazatricyclo[8.4.0.02,6]tetradeca-1(10),3,5,8,11,13-hexaen-4-yl]oxetane-3-carboxamide]
pKi [1, 2]: 4.91 | Efficacy (GABA) % (h-GABA-A α2β2γ1): 143% | Fold increase h-GABA-A α2β2γ1 oocyte @ 30-fold Ki (h-GABA-A α2β2γ1): 2.43

C[C@@H]1N=C(c2c(F)cccc2F)c2c(cnc(C(F)(F)F)c2Cl)-n2nc(N3CCCC3=O)nc21 [Example 13, 1-[(7S)-11-chloro-9-(2,6-difluorophenyl)-7-methyl-12-(trifluoromethyl)-2,3,5,8,13-pentazatricyclo[8.4.0.02,6]tetradeca-1(10),3,5,8,11,13-hexaen-4-yl]pyrrolidin-2-one]
pKi [1, 2]: 5.28 | Efficacy (GABA) % (h-GABA-A α2β2γ1): 173% | Fold increase h-GABA-A α2β2γ1 oocyte @ 30-fold Ki (h-GABA-A α2β2γ1): 2.73

C[C@@H]1N=C(c2c(F)cccc2F)c2c(cnc(C(F)(F)F)c2Cl)-n2cc(C(=O)NCCO)nc21 [Example 19, (7S)-11-chloro-9-(2,6-difluorophenyl)-N-(2-hydroxyethyl)-7-methyl-12-(trifluoromethyl)-2,5,8,13-tetrazatricyclo[8.4.0.02,6]tetradeca-1(10),3,5,8,11,13-hexaene-4-carboxamide]
pKi [1, 2]: 5.29 | Efficacy (GABA) % (h-GABA-A α2β2γ1): 170% | Fold increase h-GABA-A α2β2γ1 oocyte @ 30-fold Ki (h-GABA-A α2β2γ1): 2.70

C[C@@H]1N=C(c2c(F)cccc2F)c2c(cnc(C(F)(F)F)c2Cl)-n2nc(C(=O)NCC(C)(C)O)nc21 [Example 21, (7S)-11-chloro-9-(2,6-difluorophenyl)-N-(2-hydroxy-2-methyl-propyl)-7-methyl-12-(trifluoromethyl)-2,3,5,8,13-pentazatricyclo[8.4.0.02,6]tetradeca-1(10),3,5,8,11,13-hexaene-4-carboxamide]
pKi [1, 2]: 4.95 | Efficacy (GABA) % (h-GABA-A α2β2γ1): 175% | Fold increase h-GABA-A α2β2γ1 oocyte @ 30-fold Ki (h-GABA-A α2β2γ1): 2.75

COC1CN(C(=O)c2nc3n(n2)-c2cnc(C(F)(F)F)c(Cl)c2C(c2c(F)cccc2F)=N[C@H]3C)C1 [Example 9, [(7S)-11-chloro-9-(2,6-difluorophenyl)-7-methyl-12-(trifluoromethyl)-2,3,5,8,13-pentazatricyclo[8.4.0.02,6]tetradeca-1(10),3,5,8,11,13-hexaen-4-yl]-(3-methoxyazetidin-1-yl)methanone]
pKi [1, 2]: 5.47 | Efficacy (GABA) % (h-GABA-A α2β2γ1): 87% | Fold increase h-GABA-A α2β2γ1 oocyte @ 30-fold Ki (h-GABA-A α2β2γ1): 1.87

C[C@@H]1N=C(c2c(F)cccc2F)c2c(cnc(C(F)(F)F)c2Cl)-n2nc(C(=O)NCCO)nc21 [Example 15, (7S)-11-chloro-9-(2,6-difluorophenyl)-N-(2-hydroxyethyl)-7-methyl-12-(trifluoromethyl)-2,3,5,8,13-pentazatricyclo[8.4.0.02,6]tetradeca-1(10),3,5,8,11,13-hexaene-4-carboxamide]
pKi [1, 2]: 5.02 | Efficacy (GABA) % (h-GABA-A α2β2γ1): 146% | Fold increase h-GABA-A α2β2γ1 oocyte @ 30-fold Ki (h-GABA-A α2β2γ1): 2.46

Cc1nnc2n1-c1cnc(C(F)(F)F)c(Cl)c1C(c1c(F)cccc1F)=N[C@H]2C [Example 4, (7S)-11-chloro-9-(2,6-difluorophenyl)-3,7-dimethyl-12-(trifluoromethyl)-2,4,5,8,13-pentazatricyclo[8.4.0.02,6]tetradeca-1(10),3,5,8,11,13-hexaene]
pKi [1, 2]: 5.14 | pKi ([1]; Table 3, reference compounds comparison): 5.14 | Efficacy (GABA) % (h-GABA-A α2β2γ1): 116% | Fold increase h-GABA-A α2β2γ1 oocyte @ 30-fold Ki (h-GABA-A α2β2γ1): 2.16

C[C@@H]1N=C(c2c(F)cccc2F)c2c(cnc(C(F)(F)F)c2Cl)-n2nc(C(=O)N3CCS(=O)(=O)CC3)nc21 [Example 11, [(7S)-11-chloro-9-(2,6-difluorophenyl)-7-methyl-12-(trifluoromethyl)-2,3,5,8,13-pentazatricyclo[8.4.0.02,6]tetradeca-1(10),3,5,8,11,13-hexaen-4-yl]-(1,1-dioxo-1,4-thiazinan-4-yl)methanone]
pKi [1, 2]: 5.10 | Efficacy (GABA) % (h-GABA-A α2β2γ1): 114% | Fold increase h-GABA-A α2β2γ1 oocyte @ 30-fold Ki (h-GABA-A α2β2γ1): 2.14

Cc1nnc2n1-c1cnc(C(F)(F)F)c(Cl)c1C(c1c(F)cccc1Cl)=N[C@H]2C [Example 17, (7S)-11-chloro-9-(2-chloro-6-fluoro-phenyl)-3,7-dimethyl-12-(trifluoromethyl)-2,4,5,8,13-pentazatricyclo[8.4.0.02,6]tetradeca-1(10),3,5,8,11,13-hexaene]
pKi [1, 2]: 5.31 | Efficacy (GABA) % (h-GABA-A α2β2γ1): 91% | Fold increase h-GABA-A α2β2γ1 oocyte @ 30-fold Ki (h-GABA-A α2β2γ1): 1.91

Cc1nnc2n1-c1cnc(C3CC3)c(Cl)c1C(c1c(F)cccc1F)=N[C@H]2C [Example 2, (7S)-11-chloro-12-cyclopropyl-9-(2,6-difluorophenyl)-3,7-dimethyl-2,4,5,8,13-pentazatricyclo[8.4.0.02,6]tetradeca-1(10),3,5,8,11,13-hexaene]
pKi [1, 2]: 5.48 | Efficacy (GABA) % (h-GABA-A α2β2γ1): 162% | Fold increase h-GABA-A α2β2γ1 oocyte @ 30-fold Ki (h-GABA-A α2β2γ1): 2.62

Cc1nc2n(n1)-c1cnc(C(F)(F)F)c(Cl)c1C(c1c(F)cccc1F)=N[C@H]2C [Example 5]
pKi [1, 2]: 5.32 | Efficacy (GABA) % (h-GABA-A α2β2γ1): 84% | Fold increase h-GABA-A α2β2γ1 oocyte @ 30-fold Ki (h-GABA-A α2β2γ1): 1.84

C[C@@H]1N=C(c2c(F)cccc2F)c2c(cnc(C(F)(F)F)c2Cl)-n2nc(C(=O)N3CC(O)C3)nc21 [Example 8, [(7S)-11-chloro-9-(2,6-difluorophenyl)-7-methyl-12-(trifluoromethyl)-2,3,5,8,13-pentazatricyclo[8.4.0.02,6]tetradeca-1(10),3,5,8,11,13-hexaen-4-yl]-(3-hydroxyazetidin-1-yl)methanone]
pKi [1, 2]: 5.43 | Efficacy (GABA) % (h-GABA-A α2β2γ1): 114% | Fold increase h-GABA-A α2β2γ1 oocyte @ 30-fold Ki (h-GABA-A α2β2γ1): 2.14
